Literature values as cited in patent US20240366545A1, “ANTIBACTERIAL PORPHYRIN NANOPARTICLES AND METHODS FOR MAKING AND USING THE SAME” (priority 2021, published 2024).

Test system: normal mammalian cells

CCCCCCCCCCCCCCCC[N+](C)(C)C.[Br-] [CTAB, cetyl trimethylammonium bromide]
toxic concentration: ≥ 10 µM
